# According to ChEMBL document CHEMBL5728311, “Benzyl phenyl ether derivative, preparation method therefor, and pharmaceutical composition and uses thereof” (2021):
# Target: Programmed cell death protein 1/Programmed cell death 1 ligand 1 (Homo sapiens, UniProt Q15116+Q9NZQ7)
# Experiment: In Vitro Activity Assay: 1) Principle: PD-1 protein is with HIS tag, and PD-1 ligand PD-L1 is with hFc tag. Eu labeled anti-hFc antibody and XL665 labeled anti-HIS antibody are combined with the above two label proteins respectively. After laser excitation, energy can be transferred from donor Eu to receptor XL665, allowing XL665 to glow. […] Reagents should be dispensed in the following order. For 384-well white ELISA plate, 2 μl of diluent or target compound diluted with diluent was added to each well, and then 4 μl of PD-1 protein and 4 μl of PD-L1 protein were added per well, incubated for 15 min at room temperature; and 10 μl of a mixture of anti-Tag1-Eu3+ and anti-Tag2-XL665 was added per well and incubated for 1 h to 4 h at room temperature and the fluorescence signals at 665 nm and 620 nm were measured with an Envison instrument. HTRF rate=(665 nm/620 nm)[…]. 8-10 concentrations were detected for each compound and IC50 was calculated by Graphpad software.
# Type: protein-complex assay
# Sequence of Programmed cell death protein 1/Programmed cell death 1 ligand 1 (Q15116 whole entry): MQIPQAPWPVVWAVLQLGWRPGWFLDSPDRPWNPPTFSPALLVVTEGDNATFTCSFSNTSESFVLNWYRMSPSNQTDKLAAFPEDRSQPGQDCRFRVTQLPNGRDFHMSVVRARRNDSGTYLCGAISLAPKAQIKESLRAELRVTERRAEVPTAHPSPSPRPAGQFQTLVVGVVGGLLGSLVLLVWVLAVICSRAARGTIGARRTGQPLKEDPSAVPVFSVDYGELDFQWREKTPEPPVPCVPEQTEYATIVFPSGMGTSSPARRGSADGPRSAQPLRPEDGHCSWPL
# Sequence of Programmed cell death protein 1/Programmed cell death 1 ligand 1 (Q9NZQ7 whole entry): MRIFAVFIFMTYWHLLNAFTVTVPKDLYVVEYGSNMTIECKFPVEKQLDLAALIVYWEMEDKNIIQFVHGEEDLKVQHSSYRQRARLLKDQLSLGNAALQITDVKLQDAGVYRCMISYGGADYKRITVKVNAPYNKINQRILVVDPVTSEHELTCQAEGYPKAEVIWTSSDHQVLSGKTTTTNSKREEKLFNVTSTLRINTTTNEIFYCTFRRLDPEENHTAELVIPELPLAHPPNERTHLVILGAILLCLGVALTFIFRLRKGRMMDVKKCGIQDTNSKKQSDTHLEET
row,SMILES,IC50 [µM]
1,N#Cc1cccc(COc2cc(OCc3cccc(-c4ccccc4)c3Br)ccc2CN2CCOCC2)c1,0.458
2,CS(=O)(=O)NCCNCc1ccc(OCc2cccc(-c3ccccc3)c2Br)cc1OCc1cccc(C#N)c1,0.979
3,N#Cc1cccc(COc2cc(OCc3cccc(-c4ccccc4)c3Br)c(Cl)cc2CNCCO)c1,0.00529
